The values that follow come from the NIST ThermoML archive (doi:10.1021/acs.jced.8b00488).

For this series the following is noted: Liquid, Ebulliometric method (Recirculating still).

± gives the expanded uncertainty stated by the source.

`C[Si](C)(C)O[Si](C)(C)C` [hexamethyldisiloxane]: under “374.12 K”, the vapor or sublimation pressure (usually the pressure of vapour in equilibrium with the condensed phase) is reported as 101.3 ± 0.8 kPa.

Take `CC(C)=O` [acetone]: the “vapor or sublimation pressure” value (329.33 K) is listed as 101.3 ± 0.8 kPa.
